We go through twelve molecules from paper PMC11547093, “Novel Phenoxyalkanoic Acid Derivatives as Free Fatty Acid Receptor 4 Agonists for Treating Type 2 Diabetes Mellitus” (International Journal of Molecular Sciences, 2024).

Broadly, the EC50 is the midpoint of the concentration-response curve. What is called Tmax is the time from dosing to the highest level. The AUC is the area under the concentration-time curve, a measure of exposure. A higher AUC goes with more exposure. The term Cmax denotes the maximum level reached in the sampled fluid or tissue. The half-life is the time in which the quantity being followed falls by half. A higher half-life goes with slow loss.

Series [1] concerns the target T1, human FFAR4 (Homo sapiens, UniProt Q5NUL3).
T1 sequence (Q5NUL3 1-361): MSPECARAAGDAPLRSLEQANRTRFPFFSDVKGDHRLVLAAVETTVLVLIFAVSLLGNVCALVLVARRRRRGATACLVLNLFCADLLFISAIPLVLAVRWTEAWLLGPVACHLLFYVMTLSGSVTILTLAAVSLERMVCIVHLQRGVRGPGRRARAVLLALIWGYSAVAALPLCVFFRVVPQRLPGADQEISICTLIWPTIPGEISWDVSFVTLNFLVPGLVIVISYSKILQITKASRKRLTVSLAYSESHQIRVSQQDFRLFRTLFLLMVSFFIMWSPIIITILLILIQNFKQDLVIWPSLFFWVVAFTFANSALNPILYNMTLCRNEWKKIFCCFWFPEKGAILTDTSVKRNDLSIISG
Description: cell-based.

For series [2], the system named is normal ICR mice. Description: oral glucose tolerance test in normal ICR mice. The note with it: 20 mg/kg by gavage 30 min before glucose 2 g/kg, AUC 0-120 min.
Description: Compounds (20 mg/kg) or the vehicle was administered by gavage 30 min before glucose administration (2 g/kg). […] The test compounds were dissolved in 0.5% methyl cellulose (MC) and vortexed before the study initiation. […] The exact dose volume was calculated separately for each animal. […] Blood glucose levels were measured using blood glucose test strips (Sannuo GA-3 type; Changsha, China).
The target in series [3] is T2, human FFAR1 (Homo sapiens, UniProt O14842).
T2 construct: expressed in transfected cells; host or cells: CHO cells
Description: calcium influx assay, hFFAR1 (hGPR40) agonistic activity in transfected CHO cells. It counts as cell-based.

Series [4] can be described thus: pharmacokinetic study in ICR mice. The note with it: oral 10 mg/kg. It is filed as in vivo. As for the experimental part:
The AUC was calculated using the trapezoidal method.
Plasma was collected and precipitated using two volumes of acetonitrile containing an internal standard. This step was followed by centrifugation at 15.680 g for 10 min after vortexing for 5 min. The supernatant was diluted with acetonitrile, and 10 µL of the supernatant was analyzed by Waters LC-PDA-MS/MS to determine plasma drug levels. Pharmacokinetic parameters were determined using mean data from four mice at each time point. Statistical analysis of the data was performed using the DAS 2.1.1 statistical software program (BioVoice, Shanghai, China).

The subject of series [5] is DIO mice. The series is described as follows: anti-hyperglycemic effects (OGTT, insulin) in diet-induced obese (DIO) mice. It counts as in vivo, C57BL/6 mice. The settings on record: for reduction of blood glucose AUC versus vehicle-treated group: AUC -30 to 120 min. The protocol: During the experimental period, plasma insulin levels were measured 30 min after glucose administration using an insulin ELISA Kit.
Plasma insulin levels were measured using a mouse insulin RIA kit 30 min after oral glucose loading (Beijing North Institute of Biological Technology, Beijing, China).

SMILES strings stand for the structures.

T2 sequence (O14842 whole entry): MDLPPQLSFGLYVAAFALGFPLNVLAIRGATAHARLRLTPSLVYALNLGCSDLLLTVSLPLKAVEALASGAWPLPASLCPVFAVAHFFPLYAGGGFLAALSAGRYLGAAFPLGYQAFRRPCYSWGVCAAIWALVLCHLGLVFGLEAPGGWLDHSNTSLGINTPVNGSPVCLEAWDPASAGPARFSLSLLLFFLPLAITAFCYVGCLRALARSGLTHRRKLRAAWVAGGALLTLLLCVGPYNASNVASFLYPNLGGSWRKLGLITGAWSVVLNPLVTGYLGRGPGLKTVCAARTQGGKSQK

In series [1], `Cc1ccc(-c2ccc(F)cc2NC(=O)c2ccc(OCCCCC(=O)O)cc2C)cc1` [Compound 9f, 5-(4-((4-fluoro-4′-methyl-[1,1′-biphenyl]-2-yl)carbamoyl)-3-methylphenoxy)pentanoic acid] came in with an EC50 of 279 nM.

In turn, `Cc1ccc(-c2ccc(F)cc2NC(=O)c2ccc(OCCCC(=O)O)cc2)cc1` [Compound 2f, 4-(4-((4-fluoro-4′-methyl-[1,1′-biphenyl]-2-yl)carbamoyl)phenoxy)butanoic acid] returned an EC50 in series [1] of 189 nM.

Consider `Cc1ccc(-c2ccc(F)cc2NC(=O)c2ccc(OCCCC(=O)O)c(C)c2)cc1` [Compound 5f, 4-(4-((4-fluoro-4′-methyl-[1,1′-biphenyl]-2-yl)carbamoyl)-2-methylphenoxy)butanoic acid], for which the “reduction of blood glucose AUC versus vehicle-treated group” value (shortened to “reduction”) in series [2] amounted to 16.7%. The same molecule came in with an EC50 in series [1] of 113 nM.

`Cc1ccc(-c2ccc(F)cc2NC(=O)c2ccc(OCCCCC(=O)O)cc2)cc1` [Compound 3f, 5-(4-((4-fluoro-4′-methyl-[1,1′-biphenyl]-2-yl)carbamoyl)phenoxy)pentanoic acid] displayed an EC50 in series [1] of 236 nM.

In series [1], `Cc1ccc(-c2ccc(F)cc2NC(=O)c2ccc(OCCCC(=O)O)cc2C)cc1` [Compound 8f, 4-(4-((4-fluoro-4′-methyl-[1,1′-biphenyl]-2-yl)carbamoyl)-3-methylphenoxy)butanoic acid] returned an EC50 of 246 nM.

With `Cc1ccc(-c2ccc(F)cc2NC(=O)c2ccc(OCC(=O)O)cc2)cc1` [Compound 1f, 2-(4-((4-fluoro-4′-methyl-[1,1′-biphenyl]-2-yl)carbamoyl)phenoxy)acetic acid], the EC50 in series [1] was 136 nM.

`Cc1ccc(-c2ccc(F)cc2NC(=O)c2ccc(OCC(=O)O)c(F)c2)cc1` [Compound 10f, 2-(2-fluoro-4-((4-fluoro-4′-methyl-[1,1′-biphenyl]-2-yl)carbamoyl)phenoxy)acetic acid]: in series [3] (FFAR4 versus FFAR1), the “potency in stimulating FFAR4 over FFAR1 (selectivity)” value is “approximately 400 fold”. Further, the EC50 in series [3] (human FFAR1 transfected CHO cells, calcium influx) turned out to be 32900 nM; in series [1], 78.6 nM. Also, the Tmax in series [4] (male, mouse, plasma) was 0.5 h. In series [4] (male, mouse, plasma, 0 to 24 h, mean ± SD of four mice), the AUC was 9830 ± 2930 ng·h/mL. The molecule further returned a Cmax in series [4] (male, mouse, plasma, 0.5% methyl cellulose, mean ± SD of four mice) of 3140 ± 1150 ng/mL. Moreover, the half-life in series [4] (male, mouse, plasma, mean ± SD of four mice) is 1.51 ± 0.51 h. The “Cmax relative to TUG-891” value in series [4] turned out to be 2.5 times. For the same molecule, the “reduction” value in series [2] is 30.8%; in series [5] (30 mg/kg oral 30 min before glucose 2 g/kg) it was 20.1%; in series [5] (100 mg/kg oral 30 min before glucose 2 g/kg), 32.4%. The hypoglycemic effect entry is recorded as “significant hypoglycemic activity” in series [5] (doses exceeding 10 mg/kg oral); “did not exhibit significant hypoglycemic effects” in series [5] (lower doses 1 mg/kg and 3 mg/kg oral). In addition, in series [5] (doses greater than 10 mg/kg, 30 min after glucose administration), the “plasma insulin level versus control group” value is reported as “significantly higher”. Also, in series [5] (doses up to 100 mg/kg oral), the “hypoglycemia during the experiment” value is “no hypoglycemia was observed”.

`Cc1ccc(-c2ccc(F)cc2NC(=O)c2ccc(OCC(=O)O)c(C)c2)cc1` [Compound 4f, 2-(4-((4-fluoro-4′-methyl-[1,1′-biphenyl]-2-yl)carbamoyl)-2-methylphenoxy)acetic acid]: the EC50 in series [1] turned out to be 145 nM.

As for `Cc1ccc(-c2ccc(F)cc2NC(=O)c2ccc(OCCCCC(=O)O)c(F)c2)cc1` [Compound 12f, 5-(2-fluoro-4-((4-fluoro-4′-methyl-[1,1′-biphenyl]-2-yl)carbamoyl)phenoxy)pentanoic acid], it took 127 nM to reach a half-maximal effect in series [1] (EC50).

`Cc1ccc(-c2ccc(F)cc2NC(=O)c2ccc(OCCCCC(=O)O)c(C)c2)cc1` [Compound 6f, 5-(4-((4-fluoro-4′-methyl-[1,1′-biphenyl]-2-yl)carbamoyl)-2-methylphenoxy)pentanoic acid] returned an EC50 in series [1] of 218 nM.

As to `Cc1ccc(-c2ccc(F)cc2NC(=O)c2ccc(OCC(=O)O)cc2C)cc1` [Compound 7f, 2-(4-((4-fluoro-4′-methyl-[1,1′-biphenyl]-2-yl)carbamoyl)-3-methylphenoxy)acetic acid], it took 189 nM to reach a half-maximal effect in series [1] (EC50).

`Cc1ccc(-c2ccc(F)cc2NC(=O)c2ccc(OCCCC(=O)O)c(F)c2)cc1` [Compound 11f, 4-(2-fluoro-4-((4-fluoro-4′-methyl-[1,1′-biphenyl]-2-yl)carbamoyl)phenoxy)butanoic acid]: the “reduction” value in series [2] was 20.0%. The same molecule had an EC50 in series [1] of 93.2 nM.
